The record followed here is article PMC12040169 (PLOS Biology, 2025).

The nature of the series: in vitro. The conditions noted are these: human, hela cells, % viability.
As a reminder, the viability is a read-out of living cells in per cent, often relative to untreated cells. As for `CCC(C(=O)Nc1cc(OC)c(OC)cc1C(=O)O)c1ccccc1` (centres unmarked) [CBK266794], the viability at 28.5 h, 10 µM came out at 106%.
With `Cc1nnc2sc(-c3ccc(NC(=S)NC(=O)c4cc5ccccc5o4)cc3)nn12` [CBK266795] the figure was 100%.
For `CC(Oc1ccc(Br)cc1)C(=O)O/N=C(\N)c1ccncc1` (centres unmarked) [CBK266797] the value was 93%; for `COC(=O)c1cn(C(=O)CCCN2C(=O)c3ccccc3C2=O)c2ccccc12` [CBK266799], 91.7%.
With `COc1cc(NC(=O)c2ccc3c(c2)C(=O)N(Cc2cccnc2)C3=O)c(C(=O)O)cc1OC` [CBK266802] the figure was 88.1%.
In the case of `CC1(C)CC(NS(=O)(=O)c2ccc(Br)cc2)CC(C)(C)N1` [CBK266805], the viability at 28.5 h, 10 µM came out at 97.7%.
For `CC1(C)CC(NC(=O)COc2ccc([N+](=O)[O-])cc2)CC(C)(C)N1` [CBK266806] the value was 98%; for `CC(CNS(=O)(=O)c1cc(Cl)ccc1Cl)CN(C)C` (centres unmarked) [CBK266808], 108%; for `Cc1ccc(NC(=O)COc2ccccc2)c(NC(=O)c2ccco2)c1` [CBK266809], 95.6%.
With `O=C(Nc1ccccc1)c1ccc(N2CCN(c3ccccn3)CC2)c(S(=O)(=O)N2CCOCC2)c1` [CBK266810] the figure was 91.7%; with `CS(=O)(=O)N1CCC(C(=O)NNC(=S)Nc2cccc3ccccc23)CC1` [CBK266811], 84.2%; with `S=C(NCCc1ccc(Cl)cc1)NCc1ccco1` [CBK266812], 83.3%.
With `NS(=O)(=O)c1ccc(NC(=O)C2CCCN(S(=O)(=O)c3ccc(Cl)cc3)C2)cc1` (centres unmarked) [CBK266813] the figure was 91.7%; with `Cc1ccc(C)c(S(=O)(=O)NC(Cc2c[nH]c3ccccc23)C(=O)O)c1` (centres unmarked) [CBK266816], 105%.
For the compound `O=C(NNC(=S)NCCc1ccccc1)c1ccc(Br)o1` [CBK266818], the viability at 28.5 h, 10 µM stood at 96.3%.
For the compound `COc1ccc(C(=O)Nc2ccc3c(c2)nc2n3CCN(Cc3ccccc3)C2)cc1` [CBK266820], the viability at 28.5 h, 10 µM came to 82.5%.
Take `COc1cccc(/C=C\c2[nH]c(=O)[nH]c(=O)c2[N+](=O)[O-])c1OCC(=O)O` [CBK266822]: the viability at 28.5 h, 10 µM is 104%.
Take `O=C(CCSc1ccccc1)Nc1ccc(Br)cc1F` [CBK266825]: the viability at 28.5 h, 10 µM stood at 101%.
For `CN1CCN(C(=S)c2ccc(OCC(=O)Nc3cccc(C(F)(F)F)c3)cc2)CC1` [CBK266826] the value was 92.2%; for `Cc1cc(=O)oc2cc(NC(=S)NNC(=O)c3ccc(Cl)s3)ccc12` [CBK266828], 92.3%; for `COC(=O)c1ccccc1NC(=O)Nc1ccc(N2CCOCC2)c2nonc12` [CBK266830], 90.6%.
On to `COc1ccc(NC(=O)Nc2nn(Cc3c(F)cccc3Cl)cc2Br)c(OC)c1` [CBK266834], for which the viability at 28.5 h, 10 µM was found to be 83.8%.
For the compound `COc1ccc(OC)c(S(=O)(=O)N2CCC(C(=O)O)CC2)c1` [CBK266835], the viability at 28.5 h, 10 µM was found to be 83.5%.
Consider `O=C(CC1NCCNC1=O)Nc1ccc2c(c1)OCCO2` (centres unmarked) [CBK266837], for which the viability at 28.5 h, 10 µM stood at 99.3%.
Consider `COc1ccccc1N1CCN(CCNC(=O)Nc2cccc(C)c2C)CC1` [CBK266839], for which the viability at 28.5 h, 10 µM was found to be 90.2%.
As for `CCN(CC)CCN1C(=O)c2oc3cc(C)c(C)cc3c(=O)c2C1c1cc(Br)c(O)c(OC)c1` (centres unmarked) [CBK266846], the viability at 28.5 h, 10 µM was determined as 105%.
As for `CC(=O)c1cccc(NC(=O)C2CCCN(S(=O)(=O)c3ccc(Cl)cc3)C2)c1` (centres unmarked) [CBK266847], the viability at 28.5 h, 10 µM was 102%.
Consider `CCOc1cc(-c2cc(C(=O)O)c3ccccc3n2)ccc1O` [CBK266848], for which the viability at 28.5 h, 10 µM was 103%.
As for `CCNS(=O)(=O)c1ccc(NC(=O)Nc2cc(C)ccc2OC)cc1` [CBK266850], the viability at 28.5 h, 10 µM is 106%.
For the compound `O=C(CN1CCOCC1)NCCNc1c(Cl)c(Cl)c(Cl)c(Cl)c1Cl` [CBK266851], the viability at 28.5 h, 10 µM is 84.7%.
For `CCOc1cc(C(=S)N2CCN(C)CC2)ccc1OCC(=O)N1CCOCC1` [CBK266856] the value was 101%.
As to `O=C(NCCNC1CCC(c2ccccc2)CC1)c1ccc(F)cc1` (centres unmarked) [CBK266857], the viability at 28.5 h, 10 µM was found to be 88.2%.
For `COc1ccccc1-c1nnc(Sc2nc([N+](=O)[O-])nn2C)o1` [CBK266858] the value was 85.1%.
With `Cc1ccc(S(=O)(=O)N2C(=O)CCC2C(=O)O/N=C(\N)c2cccnc2)cc1` (centres unmarked) [CBK266864] the figure was 111%; with `CCN1CCCC1CNC(=O)C(=O)Nc1ccccc1OC` (centres unmarked) [CBK266865], 103%; with `Cc1ccc(C(=O)NNC(=S)Nc2ccc(S(N)(=O)=O)cc2)cc1[N+](=O)[O-]` [CBK266866], 95.6%.
For `C=CCn1c(SCC(=O)Nc2cc(Cl)ccc2C)nnc1-c1ccccc1O` [CBK266867] the value was 94.5%; for `CCn1c2ccccc2n2c(SCC(=O)O)nnc12` [CBK266869], 91.4%; for `O=C(NCCNCc1ccco1)c1ccc(F)cc1` [CBK266873G], 103%.
On to `Cc1cccc(Cn2cnc(NC(=O)Nc3cccc(Cl)c3C)n2)c1` [CBK266876], for which the viability at 28.5 h, 10 µM was determined as 89.5%.
For `COC(=O)c1sc2cc(NC(=S)NNC(=O)c3ccoc3C)ccc2c1Cl` [CBK266877], the viability at 28.5 h, 10 µM worked out at 83.3%.
For `O=S(=O)(c1ccc(Cl)cc1)N1CCN(S(=O)(=O)N2CCOCC2)CC1` [CBK266878] the value was 92.9%; for `CCN1CCN(C(=O)C2CCN(S(=O)(=O)c3ccc(Br)cc3)CC2)CC1` [CBK266881], 103%.
With `O=C(NNC(=O)c1cc2ccccc2cc1O)Nc1cccc([N+](=O)[O-])c1` [CBK266882], the viability at 28.5 h, 10 µM stood at 101%.
As to `COc1ccc(N(CC(=O)Nc2c(F)cccc2F)S(=O)(=O)c2ccccc2)cc1` [CBK266883], the viability at 28.5 h, 10 µM is 95.2%.
For `O=C(Nc1ccc([N+](=O)[O-])cc1)Nc1ccc(N2CCOCC2)c2nonc12` [CBK266885] the value was 93.1%.
For `COC(=O)c1ccccc1NC(=O)NCc1cc(C)n(C)n1` [CBK266887C] the value was 109%; for `O=c1c(-c2nncn2-c2ccccc2)coc2c(O)c(O)ccc12` [CBK266889], 102%.
Consider `Cc1ccc2nc(C)cc(C(=O)NNC(=O)Nc3ccc([N+](=O)[O-])cc3)c2c1` [CBK266890], for which the viability at 28.5 h, 10 µM is 98.8%.
In the case of `COc1ccc(NC(=S)N2CCN(C/C=C/c3ccccc3)CC2)cc1OC` [CBK266891], the viability at 28.5 h, 10 µM was 88.7%.
`COC(=O)c1c(NC(=S)Nc2cnccn2)sc2c1CCC(C)C2` (centres unmarked) [CBK266893]: the viability at 28.5 h, 10 µM is 94.2%.
`Cc1ccc(C)c(S(=O)(=O)Nc2ccc(O)c(Sc3nnc[nH]3)c2)c1` [CBK266894]: the viability at 28.5 h, 10 µM came to 95.2%.
`S=C(NCc1ccco1)NCc1cn(-c2ccccc2)nc1-c1ccccc1` [CBK266895]: the viability at 28.5 h, 10 µM came out at 112%.
With `Cc1cccc(NC(=O)C(Cc2ccccc2)C(=O)Nc2cccc(C)c2)c1` [CBK266899] the figure was 91.9%; with `O=C(COc1ccccc1)NC1C(=O)N2C(C(=O)O)=C(Cl)CSC12` (centres unmarked) [CBK266903], 92.7%; with `O=C(Cc1ccccc1[N+](=O)[O-])NNC(=S)Nc1ccc(F)c(Cl)c1` [CBK266904], 101%.
